PubChem BioAssay AID1949 (Southern Research Institute, 2009)
Values after ≈ are worked out from the molar mass of the structure shown. Records with an inconclusive call do not appear. Active and inactive are the calls of the source. How the calls were made is not given here.

Tested on: M. tuberculosis H37Rv growth inhibition
Test: Mycobacterium tuberculosis H37Rv growth inhibition, cell based, confirmatory dose response (AID 1949);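 further: bacteria grown 7 days with compound before Alamar blue readout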

With `Cc1cc(Cl)ccc1N1CCN(CCNC(=O)Nc2ccc(F)cc2)CC1` as the compound, how does the IC50 read?
Its IC50 is > 50 µg/mL (inactive).

`CC(C)OC(=O)COc1ccc2c(=O)c(Oc3ccccc3Br)coc2c1` was tested. Which IC50 did it give?
Its IC50 is 13.9 µg/mL (≈ 32.1 µM).

How did the IC50 turn out when `Nc1c(C(=O)NCc2ccc(Cl)cc2)sc2nc3c(c(C(F)(F)F)c12)CCC3` was run?
The IC50 was 9.45 µg/mL (≈ 22.2 µM).

Which IC50 does the source give for `CC1CCc2c(sc3ncn(C(C)C(=O)OCc4ccccc4)c(=O)c23)C1` (stereo not drawn) here?
The IC50 was 1.53 µg/mL (≈ 4 µM).

How did the IC50 turn out when `O=C(Oc1ccc(F)cc1)c1ccc(Oc2ccc([N+](=O)[O-])cc2)cc1` was run?
The IC50 was 1.12 µg/mL (≈ 3.17 µM).

For `O=C(OCc1ccc(S(=O)(=O)c2ccccc2)cc1)c1ccccc1Br`, which IC50 is on record?
Its IC50 is 8.37 µg/mL (≈ 19.4 µM).

How did the IC50 turn out when `CC(C)(C)c1ccc(C(=O)NC(=S)NCc2ccco2)cc1` was run?
Its IC50 is 2.16 µg/mL (≈ 6.83 µM).

How did the IC50 turn out when `CC(=O)c1cccc(Nc2cc(C)nc3c2ccc2ccccc23)c1` was run?
Its IC50 is 3.1 µg/mL (≈ 9.5 µM).

For `O=[N+]([O-])c1cccc(NC(=S)Nc2cc(C(F)(F)F)ccc2F)c1`, which IC50 is on record?
The IC50 was 19 µg/mL (≈ 52.9 µM).

`COC(=O)COc1ccc(Br)cc1C=O` was tested. Which IC50 did it give?
Its IC50 is 12.4 µg/mL (≈ 45.5 µM).

`O=C(CSc1ccc(C(F)(F)F)cc1[N+](=O)[O-])OC1CCCCC1` was tested. Which IC50 did it give?
Its IC50 is 1.26 µg/mL (≈ 3.47 µM).

With `CC1=NN(C(=O)c2ccccc2)C(O)(c2ccncc2)C1` (stereo not drawn) as the compound, how does the IC50 read?
The IC50 was under 0.1 µg/mL.

For `Cc1ccccc1N1CCN(CC(O)COc2ccc(C(=O)c3ccccc3)cc2)CC1` (stereo not drawn), which IC50 is on record?
Its IC50 is 2.81 µg/mL (≈ 6.53 µM).

With `COc1ccc(-c2cc(C(F)F)n3ncc(C(=O)NCCCn4ccnc4)c3n2)cc1` as the compound, how does the IC50 read?
The IC50 was 8.99 µg/mL (≈ 21.1 µM).

How did the IC50 turn out when `COc1cc(SC)ccc1C(=O)NCCOc1ccc(F)cc1` was run?
Its IC50 is 12.1 µg/mL (≈ 36.2 µM).

For `CC(C)Oc1ccc(NC(=O)CSc2nc3ccccc3s2)cc1`, which IC50 is on record?
The IC50 was 6.12 µg/mL (≈ 17.1 µM).

Which IC50 does the source give for `N#Cc1c(C(F)(F)F)cc(-c2cccnc2)nc1SCC(=O)N1CCc2ccccc2C1` here?
Its IC50 is > 50 µg/mL (inactive).

For `O=C1C(Cl)=C(c2ccc(Cl)cc2)C(=O)N1c1ccc(Cl)cc1`, which IC50 is on record?
The IC50 was > 50 µg/mL (inactive).

Which IC50 does the source give for `CC(C)(C)c1ccc(OCCNC(=O)c2cccc(Br)c2)cc1` here?
The IC50 was 5.19 µg/mL (≈ 13.8 µM).

With `COc1ccc(OCC(=O)N=Nc2c(O)[nH]c3c(Br)cc(C)cc23)c(Br)c1` as the compound, how does the IC50 read?
Its IC50 is 16.7 µg/mL (≈ 33.6 µM).

With `CC12CC3CC(C)(C1)CC(CNCc1ccccc1O)(C3)C2` as the compound, how does the IC50 read?
The IC50 was 2.89 µg/mL (≈ 9.65 µM).

Which IC50 does the source give for `O=C(COc1ccc(-c2ccccc2)cc1)OC1CCCCC1` here?
Its IC50 is 0.65 µg/mL (≈ 2.09 µM).

For `Cc1ccc(OCC(O)CN2CCN(CC(O)COc3ccc(C)cc3C)CC2)c(C)c1` (stereo not drawn), which IC50 is on record?
Its IC50 is 3.27 µg/mL (≈ 7.39 µM).

How did the IC50 turn out when `CCCn1nnc(NC(=O)COc2ccc(C3CCCCC3)cc2)n1` was run?
Its IC50 is 0.64 µg/mL (≈ 1.86 µM).

How did the IC50 turn out when `Cc1ccc([N+](=O)[O-])cc1S(=O)(=O)Nc1cc(Br)c(O)c2ccccc12` was run?
Its IC50 is 11 µg/mL (≈ 25.1 µM).

With `CN(Cc1ccccc1)C(=S)NC(=O)c1cccs1` as the compound, how does the IC50 read?
The IC50 was 0.74 µg/mL (≈ 2.55 µM).

With `Cc1ccc(NC(=O)c2ccc(OCC(=O)OC3CCCCC3)cc2)cc1` as the compound, how does the IC50 read?
The IC50 was 2.73 µg/mL (≈ 7.43 µM).

For `O=C(Nc1ccc(Br)c(Cl)c1)c1ccc(F)cc1`, which IC50 is on record?
Its IC50 is 15.7 µg/mL (≈ 47.8 µM).

For `O=C(NCCCN1CCN(c2ccc(F)cc2)CC1)NC12CC3CC(CC(C3)C1)C2`, which IC50 is on record?
Its IC50 is > 50 µg/mL (inactive).

With `CCOc1ccccc1C(=O)Nc1cc(Cl)ccc1O` as the compound, how does the IC50 read?
The IC50 was 4.22 µg/mL (≈ 14.5 µM).

For `Cc1cccc(OC(C)C(=O)Nc2ccc([N+](=O)[O-])cc2)c1C` (stereo not drawn), which IC50 is on record?
The IC50 was 3.13 µg/mL (≈ 9.96 µM).

With `Cc1ccc(NC(=O)CSc2ccc(F)cc2)cc1` as the compound, how does the IC50 read?
Its IC50 is 12.3 µg/mL (≈ 44.9 µM).

With `O=c1oc(-c2ccccc2)cc(Cl)c1Cl` as the compound, how does the IC50 read?
The IC50 was 2.04 µg/mL (≈ 8.46 µM).

How did the IC50 turn out when `CCc1ccc(OCC(=O)Nc2ccc(N3CCN(C(=O)c4cccs4)CC3)c(Cl)c2)cc1` was run?
Its IC50 is 2.95 µg/mL (≈ 6.09 µM).

How did the IC50 turn out when `COc1ccc(Cn2c(=O)c3c(n4cnnc24)-c2ccccc2CC32CCCCC2)cc1` was run?
Its IC50 is 2.84 µg/mL (≈ 6.66 µM).

`Cc1ccc(-c2noc(CNc3cccc(Cl)c3)n2)cc1` was tested. Which IC50 did it give?
The IC50 was 13.9 µg/mL (≈ 46.4 µM).

How did the IC50 turn out when `CCOC(=O)Cc1nc2cc(Cl)ccc2o1` was run?
The IC50 was 10.4 µg/mL (≈ 43.5 µM).

Which IC50 does the source give for `Cn1nc([N+](=O)[O-])nc1Oc1ccc(Br)cc1` here?
Its IC50 is 7.92 µg/mL (≈ 26.5 µM).

How did the IC50 turn out when `COC(=O)Cc1c(C)c2ccc(OCC(=O)c3ccc(Cl)s3)cc2oc1=O` was run?
The IC50 was 2.49 µg/mL (≈ 6.12 µM).

With `NC(=O)c1c(NC(=O)c2c(F)c(F)c(F)c(F)c2F)sc2c1CCC2` as the compound, how does the IC50 read?
Its IC50 is 2.77 µg/mL (≈ 7.36 µM).

For `CCOC(=O)COc1ccc2c(C)c(CC(=O)OC)c(=O)oc2c1`, which IC50 is on record?
Its IC50 is 35 µg/mL (≈ 105 µM).

`CCOC(=O)COc1ccc2c(=O)c(Oc3cccc(OC)c3)coc2c1` was tested. Which IC50 did it give?
The IC50 was 27.2 µg/mL (≈ 73.4 µM).

With `Cc1cc(C)c2[nH]c3ccccc3c2n1` as the compound, how does the IC50 read?
Its IC50 is 1.3 µg/mL (≈ 6.62 µM).

Which IC50 does the source give for `CCCOC(=O)c1ccc(NC(=S)NC(=O)c2ccc(Cl)cc2)cc1` here?
The IC50 was 0.8 µg/mL (≈ 2.12 µM).

Which IC50 does the source give for `O=C(Nc1ccc(F)cc1)c1ccc(C#CC2(O)CCCCC2)cc1` here?
The IC50 was 10.6 µg/mL (≈ 31.4 µM).

With `Cc1ccc(NC(=O)CC2COc3ccccc3O2)cc1Cl` (stereo not drawn) as the compound, how does the IC50 read?
Its IC50 is 1.56 µg/mL (≈ 4.91 µM).

With `O=C(Cc1ccc(F)cc1)Nc1ccc(Cl)c(C(F)(F)F)c1` as the compound, how does the IC50 read?
The IC50 was 1.2 µg/mL (≈ 3.62 µM).

`CCCCOC(=O)c1cccc(NC(=O)c2cccc(Cl)c2)c1` was tested. Which IC50 did it give?
Its IC50 is 4.03 µg/mL (≈ 12.1 µM).

`CCOC(=O)COc1ccc2c(=O)c(-c3ccc(F)cc3)coc2c1` was tested. Which IC50 did it give?
The IC50 was 21.3 µg/mL (≈ 62.3 µM).

How did the IC50 turn out when `CCCCCn1c(NCc2cccs2)nc2ccccc21` was run?
Its IC50 is 3.41 µg/mL (≈ 11.4 µM).

For `CN1CCN(c2ccc(NC(=O)c3ccc(-c4ccc(Br)cc4)o3)cc2)CC1`, which IC50 is on record?
Its IC50 is 2.94 µg/mL (≈ 6.68 µM).

`O=C(Oc1ccccc1)c1ccc(S(=O)(=O)N2CCCCC2)cc1` was tested. Which IC50 did it give?
The IC50 was 0.73 µg/mL (≈ 2.11 µM).

With `COc1ccc(-c2csc3ncn(C(C)C(=O)OC4CCCCC4)c(=O)c23)cc1` (stereo not drawn) as the compound, how does the IC50 read?
Its IC50 is 10.9 µg/mL (≈ 26.5 µM).

How did the IC50 turn out when `Cc1cc(C)nc(/N=C(\N)Nc2cc(Cl)ccc2Cl)n1` was run?
The IC50 was 12.3 µg/mL (≈ 39.7 µM).

Which IC50 does the source give for `CCC(C)c1ccc(O)c(NC(=S)NC(=O)c2cccnc2)c1` (stereo not drawn) here?
The IC50 was under 0.1 µg/mL.

Which IC50 does the source give for `COc1ccc(CCNC(=S)N2CCN(c3ccc(Cl)c(Cl)c3)CC2)cc1OC` here?
The IC50 was 6.47 µg/mL (≈ 14.2 µM).

`Oc1ccccc1-c1n[nH]c(/C=C/c2ccc(Cl)cc2)n1` was tested. Which IC50 did it give?
Its IC50 is 2.73 µg/mL (≈ 9.17 µM).

With `O=S1(=O)C=CC2ON=C(c3c(Cl)cccc3Cl)C21` (stereo not drawn) as the compound, how does the IC50 read?
Its IC50 is 10.8 µg/mL (≈ 35.6 µM).
